# Results: ChEMBL document CHEMBL5696439 (Cancer Res, 2010)
# The source made the active and inactive calls. No cut-off for these calls is given here.
# Assays:
# [1] = target: Serine/threonine-protein kinase Sgk2 (Homo sapiens) (UniProt Q9HBY8); assay: Inhibition of recombinant human GST-tagged SGK2 (54-427 residues) expressed in insect cells at 2 uM using Ser/Thr 06 as substrate measured after 1 hr by Z'-LYTE assay relative to control; conditions: Insect cell
# [2] = target: Tyrosine-protein kinase JAK2 (Homo sapiens) (UniProt O60674); assay: Inhibition of recombinant human GST-tagged JAK2 (809-1153 +9 residues) expressed in insect cells at 2 uM using Tyr 06 as substrate measured after 1 hr by Z'-LYTE assay relative to control; conditions: Insect cell
# [3] = test system: MDA-MB-361; assay: Induction of apoptosis in PI3K/mTOR hyperactive human MDA-MB-361 cells assessed as massive cell death at 0.001 to 100 micromol/L incubated for 48 hrs by FACS analysis; assay type: functional, cell-based; conditions: dose 0.001-100 µmol/L
# [4] = target: Serine/threonine-protein kinase MRCK beta (Homo sapiens) (UniProt Q9Y5S2); assay: Inhibition of recombinant human His-tagged CDC42BPB (1-473 residues) expressed in baculovirus expression system at 2 uM using Ser/Thr 13 as substrate measured after 1 hr by Z'-LYTE assay relative to control
# [5] = test system: MDA-MB-361; assay: Antitumor activity against human MDA-MB-361 cells xenografted in female nude mouse model assessed as suppression in P-AKT at S473 level at 6 to 12 mg/kg, po qd administered as 5 days on/2 days off regimen for 4 cycles by immunoblot analysis; assay type: functional, organism-based; conditions: dose 6-12 mg/kg, time 28.0 day
# [6] = test system: 786-0; assay: Antitumor activity against VHL null-human 786-0 cells xenografted in female nude mouse model assessed as suppression in tumor growth at 25 mg/kg, po qd administered as 5 days on/2 days off regimen for 4 cycles relative to control; assay type: functional; conditions: time 28 day
# [7] = target: G protein-coupled receptor kinase 4 (Homo sapiens) (UniProt P32298); assay: Inhibition of recombinant human full-length GST-tagged GRK4 expressed in insect cells at 2 uM using Ser/Thr 16 as substrate measured after 1 hr by Z'-LYTE assay relative to control; conditions: Insect cell
# [8] = target: Ribosomal protein S6 kinase alpha-5 (Homo sapiens) (UniProt O75582); assay: Inhibition of recombinant human full length GST-tagged RPS6KA5 expressed in insect cells at 2 uM using Ser/Thr 01 as substrate measured after 1 hr by Z'-LYTE assay relative to control; conditions: Insect cell
# [9] = target: Casein kinase I isoform gamma-2 (Homo sapiens) (UniProt P78368); assay: Inhibition of recombinant human full-length His-tagged CSNK1G2 expressed in baculovirus expression system at 2 uM using Ser/Thr 05 as substrate measured after 1 hr by Z'-LYTE assay relative to control
# [10] = target: Leukocyte tyrosine kinase receptor (Homo sapiens) (UniProt P29376); assay: Inhibition of recombinant human GST-tagged LTK (450-864 residues) expressed in insect cells at 2 uM using Tyr 06 as substrate measured after 1 hr by Z'-LYTE assay relative to control; conditions: Insect cell
# [11] = target: Proto-oncogene tyrosine-protein kinase ROS (Homo sapiens) (UniProt P08922); assay: Inhibition of recombinant human GST-tagged ROS1 (1883-2347 residues) expressed in insect cells at 2 uM using Tyr 01 as substrate measured after 1 hr by Z'-LYTE assay relative to control; conditions: Insect cell
# [12] = target: Dual specificity mitogen-activated protein kinase kinase 6 (Homo sapiens) (UniProt P52564); assay: Inhibition of recombinant human full length His-tagged MAP2K6 expressed in baculovirus expression system at 2 uM using Ser/Thr 03 as substrate measured after 1 hr by Z'-LYTE assay relative to control
# Dual specificity mitogen-activated protein kinase kinase 6 (Homo sapiens), sequence (P52564 whole entry): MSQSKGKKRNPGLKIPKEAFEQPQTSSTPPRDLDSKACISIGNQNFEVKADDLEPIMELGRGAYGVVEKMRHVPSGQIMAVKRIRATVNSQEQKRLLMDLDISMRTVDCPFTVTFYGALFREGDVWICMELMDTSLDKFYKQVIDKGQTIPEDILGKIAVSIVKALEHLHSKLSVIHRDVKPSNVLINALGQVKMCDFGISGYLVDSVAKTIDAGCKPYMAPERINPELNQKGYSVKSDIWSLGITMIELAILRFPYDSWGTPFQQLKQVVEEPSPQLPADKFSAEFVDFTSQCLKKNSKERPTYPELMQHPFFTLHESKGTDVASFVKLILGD
# Serine/threonine-protein kinase Sgk2 (Homo sapiens), sequence (Q9HBY8 whole entry, the tested form may be a part): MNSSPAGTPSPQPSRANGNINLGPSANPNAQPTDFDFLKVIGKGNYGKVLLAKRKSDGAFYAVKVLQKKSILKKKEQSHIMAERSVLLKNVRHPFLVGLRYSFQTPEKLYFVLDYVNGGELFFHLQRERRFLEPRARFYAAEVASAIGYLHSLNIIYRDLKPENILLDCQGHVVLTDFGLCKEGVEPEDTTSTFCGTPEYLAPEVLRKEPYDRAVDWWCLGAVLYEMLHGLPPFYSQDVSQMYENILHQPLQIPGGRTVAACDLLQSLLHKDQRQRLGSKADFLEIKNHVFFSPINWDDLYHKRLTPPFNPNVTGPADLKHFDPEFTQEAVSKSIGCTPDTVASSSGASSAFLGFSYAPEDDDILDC
# Casein kinase I isoform gamma-2 (Homo sapiens), sequence (P78368 whole entry, looked up, the tested form may be a part, canonical isoform): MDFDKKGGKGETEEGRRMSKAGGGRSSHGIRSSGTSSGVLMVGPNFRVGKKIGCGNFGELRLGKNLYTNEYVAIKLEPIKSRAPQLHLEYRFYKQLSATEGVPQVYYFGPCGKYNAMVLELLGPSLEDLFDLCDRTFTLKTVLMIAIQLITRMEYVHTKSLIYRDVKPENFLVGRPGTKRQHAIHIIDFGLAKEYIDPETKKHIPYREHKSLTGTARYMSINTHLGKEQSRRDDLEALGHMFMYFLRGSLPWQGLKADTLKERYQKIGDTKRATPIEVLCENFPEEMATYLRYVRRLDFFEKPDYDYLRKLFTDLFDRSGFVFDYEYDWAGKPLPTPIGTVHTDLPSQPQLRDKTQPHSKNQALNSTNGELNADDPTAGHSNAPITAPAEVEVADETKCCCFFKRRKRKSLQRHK
# Proto-oncogene tyrosine-protein kinase ROS (Homo sapiens), sequence (P08922 whole entry, the tested form may be a part): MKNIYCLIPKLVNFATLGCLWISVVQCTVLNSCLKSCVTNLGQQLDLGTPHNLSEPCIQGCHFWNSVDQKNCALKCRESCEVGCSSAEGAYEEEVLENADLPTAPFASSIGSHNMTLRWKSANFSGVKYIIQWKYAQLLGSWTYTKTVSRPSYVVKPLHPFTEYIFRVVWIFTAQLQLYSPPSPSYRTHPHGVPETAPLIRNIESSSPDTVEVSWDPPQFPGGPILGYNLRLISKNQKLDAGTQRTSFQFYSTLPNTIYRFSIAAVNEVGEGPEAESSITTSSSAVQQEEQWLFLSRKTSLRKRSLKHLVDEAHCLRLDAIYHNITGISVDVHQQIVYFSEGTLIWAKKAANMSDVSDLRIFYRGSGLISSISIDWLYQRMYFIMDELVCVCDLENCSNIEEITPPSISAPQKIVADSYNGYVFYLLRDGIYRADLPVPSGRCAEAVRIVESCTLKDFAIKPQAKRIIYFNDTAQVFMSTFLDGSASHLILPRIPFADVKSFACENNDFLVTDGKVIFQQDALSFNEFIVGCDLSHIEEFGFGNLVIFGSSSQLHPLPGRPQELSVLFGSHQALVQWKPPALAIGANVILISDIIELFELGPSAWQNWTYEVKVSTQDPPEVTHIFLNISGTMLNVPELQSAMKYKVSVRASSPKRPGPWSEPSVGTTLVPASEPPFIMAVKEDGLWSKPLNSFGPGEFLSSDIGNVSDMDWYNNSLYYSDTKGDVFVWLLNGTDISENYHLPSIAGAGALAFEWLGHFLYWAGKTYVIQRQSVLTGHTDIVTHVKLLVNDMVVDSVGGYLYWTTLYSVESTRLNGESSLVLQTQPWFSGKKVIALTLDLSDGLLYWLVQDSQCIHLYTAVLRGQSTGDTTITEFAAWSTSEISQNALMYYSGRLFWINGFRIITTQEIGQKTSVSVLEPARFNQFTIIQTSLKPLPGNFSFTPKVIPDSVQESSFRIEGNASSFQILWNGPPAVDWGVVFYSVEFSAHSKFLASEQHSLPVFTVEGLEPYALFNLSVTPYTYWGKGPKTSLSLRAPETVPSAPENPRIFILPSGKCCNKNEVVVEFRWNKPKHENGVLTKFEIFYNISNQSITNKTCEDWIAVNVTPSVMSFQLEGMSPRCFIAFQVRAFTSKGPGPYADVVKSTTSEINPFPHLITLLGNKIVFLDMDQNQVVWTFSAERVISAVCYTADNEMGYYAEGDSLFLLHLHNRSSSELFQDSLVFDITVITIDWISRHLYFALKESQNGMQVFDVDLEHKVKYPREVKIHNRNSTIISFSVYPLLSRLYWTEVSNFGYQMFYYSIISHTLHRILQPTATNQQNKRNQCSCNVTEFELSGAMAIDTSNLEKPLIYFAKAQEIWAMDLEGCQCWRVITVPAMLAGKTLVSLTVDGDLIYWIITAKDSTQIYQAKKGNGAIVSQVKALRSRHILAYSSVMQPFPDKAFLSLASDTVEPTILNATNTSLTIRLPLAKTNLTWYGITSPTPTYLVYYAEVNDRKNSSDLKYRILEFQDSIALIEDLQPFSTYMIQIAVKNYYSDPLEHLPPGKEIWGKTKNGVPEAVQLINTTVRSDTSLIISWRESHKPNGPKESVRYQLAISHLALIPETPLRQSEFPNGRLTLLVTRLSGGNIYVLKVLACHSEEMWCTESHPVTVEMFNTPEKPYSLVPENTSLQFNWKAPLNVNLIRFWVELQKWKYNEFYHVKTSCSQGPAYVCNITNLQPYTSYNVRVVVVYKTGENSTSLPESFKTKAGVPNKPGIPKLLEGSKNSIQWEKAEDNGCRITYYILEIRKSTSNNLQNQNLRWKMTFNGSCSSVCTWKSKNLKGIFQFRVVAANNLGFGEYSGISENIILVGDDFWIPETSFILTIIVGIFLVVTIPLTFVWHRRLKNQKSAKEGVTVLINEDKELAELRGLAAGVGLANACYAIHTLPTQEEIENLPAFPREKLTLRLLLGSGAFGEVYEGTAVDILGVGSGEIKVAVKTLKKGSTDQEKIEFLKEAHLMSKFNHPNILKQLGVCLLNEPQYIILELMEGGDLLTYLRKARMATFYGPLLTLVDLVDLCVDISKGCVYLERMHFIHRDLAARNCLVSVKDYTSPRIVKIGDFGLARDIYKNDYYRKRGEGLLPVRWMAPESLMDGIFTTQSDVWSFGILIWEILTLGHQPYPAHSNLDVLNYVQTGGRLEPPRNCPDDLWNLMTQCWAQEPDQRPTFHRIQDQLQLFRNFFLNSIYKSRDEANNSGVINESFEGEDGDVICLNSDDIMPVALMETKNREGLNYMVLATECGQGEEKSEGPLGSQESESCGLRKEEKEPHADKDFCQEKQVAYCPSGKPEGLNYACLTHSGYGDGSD
# G protein-coupled receptor kinase 4 (Homo sapiens), sequence (P32298 whole entry, looked up): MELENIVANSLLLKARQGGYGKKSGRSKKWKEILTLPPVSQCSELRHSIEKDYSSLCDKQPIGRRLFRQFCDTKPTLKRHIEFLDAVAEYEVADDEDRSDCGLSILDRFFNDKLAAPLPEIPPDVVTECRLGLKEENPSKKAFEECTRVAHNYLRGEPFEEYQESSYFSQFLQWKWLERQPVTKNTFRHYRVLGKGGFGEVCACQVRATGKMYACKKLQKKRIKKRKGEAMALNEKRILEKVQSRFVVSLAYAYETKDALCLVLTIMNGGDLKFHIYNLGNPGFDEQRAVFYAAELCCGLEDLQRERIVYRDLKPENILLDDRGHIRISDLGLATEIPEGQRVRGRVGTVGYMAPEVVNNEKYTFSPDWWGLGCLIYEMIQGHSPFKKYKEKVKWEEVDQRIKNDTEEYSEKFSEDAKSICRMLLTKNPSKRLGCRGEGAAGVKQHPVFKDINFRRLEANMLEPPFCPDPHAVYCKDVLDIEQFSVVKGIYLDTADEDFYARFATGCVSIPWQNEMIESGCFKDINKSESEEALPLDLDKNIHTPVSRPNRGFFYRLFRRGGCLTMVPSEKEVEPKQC
# Ribosomal protein S6 kinase alpha-5 (Homo sapiens), sequence (O75582 whole entry, looked up, canonical isoform): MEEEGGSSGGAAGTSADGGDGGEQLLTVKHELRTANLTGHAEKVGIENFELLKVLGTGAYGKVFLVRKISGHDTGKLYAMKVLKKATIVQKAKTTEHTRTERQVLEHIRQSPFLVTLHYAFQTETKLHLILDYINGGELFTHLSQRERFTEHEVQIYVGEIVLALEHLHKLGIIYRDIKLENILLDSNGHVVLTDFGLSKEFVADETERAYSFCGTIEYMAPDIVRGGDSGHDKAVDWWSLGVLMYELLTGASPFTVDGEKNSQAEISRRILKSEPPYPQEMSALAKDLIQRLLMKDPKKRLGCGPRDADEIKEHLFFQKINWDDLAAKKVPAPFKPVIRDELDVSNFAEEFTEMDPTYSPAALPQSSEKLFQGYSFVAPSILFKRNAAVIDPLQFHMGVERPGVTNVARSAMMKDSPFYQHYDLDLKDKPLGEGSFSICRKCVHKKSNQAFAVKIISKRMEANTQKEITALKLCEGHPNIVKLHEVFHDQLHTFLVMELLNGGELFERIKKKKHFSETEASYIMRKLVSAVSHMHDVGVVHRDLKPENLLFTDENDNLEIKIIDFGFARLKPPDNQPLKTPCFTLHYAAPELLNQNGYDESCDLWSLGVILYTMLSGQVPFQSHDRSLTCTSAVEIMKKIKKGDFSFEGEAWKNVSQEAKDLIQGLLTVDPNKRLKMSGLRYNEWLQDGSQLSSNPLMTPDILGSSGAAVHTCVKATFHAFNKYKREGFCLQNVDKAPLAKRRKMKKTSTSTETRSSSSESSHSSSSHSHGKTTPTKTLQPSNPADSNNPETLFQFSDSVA
smiles,measurement,setting,value
CNC(=O)Nc1ccc(-c2nc(N3CC4CCC(C3)O4)c3cnn(C4CCC5(CC4)OCCO5)c3n2)cc1,inhibition,[1],5%
same,inhibition,[2],-3%
same,Activity,[3],Active
same,inhibition,[4],9%
same,Activity,[5],Active
same,Activity,[6],100%
same,inhibition,[7],-4%
same,inhibition,[8],1%
same,inhibition,[9],-6%
same,inhibition,[10],8%
same,inhibition,[11],2%
same,inhibition,[12],8%
